BindingDB's records for doi:10.1021/jm0613323 (Burnham Institute For Medical Research, 2007)

Target: Receptor-type tyrosine-protein phosphatase C, CD45/PTPRC (Homo sapiens) (UniProt P08575)
Assay: Inhibition of CD45 PTP by fluorescence spectrometry

Chain of Receptor-type tyrosine-protein phosphatase C, CD45/PTPRC (Homo sapiens) (P08575 whole entry, looked up): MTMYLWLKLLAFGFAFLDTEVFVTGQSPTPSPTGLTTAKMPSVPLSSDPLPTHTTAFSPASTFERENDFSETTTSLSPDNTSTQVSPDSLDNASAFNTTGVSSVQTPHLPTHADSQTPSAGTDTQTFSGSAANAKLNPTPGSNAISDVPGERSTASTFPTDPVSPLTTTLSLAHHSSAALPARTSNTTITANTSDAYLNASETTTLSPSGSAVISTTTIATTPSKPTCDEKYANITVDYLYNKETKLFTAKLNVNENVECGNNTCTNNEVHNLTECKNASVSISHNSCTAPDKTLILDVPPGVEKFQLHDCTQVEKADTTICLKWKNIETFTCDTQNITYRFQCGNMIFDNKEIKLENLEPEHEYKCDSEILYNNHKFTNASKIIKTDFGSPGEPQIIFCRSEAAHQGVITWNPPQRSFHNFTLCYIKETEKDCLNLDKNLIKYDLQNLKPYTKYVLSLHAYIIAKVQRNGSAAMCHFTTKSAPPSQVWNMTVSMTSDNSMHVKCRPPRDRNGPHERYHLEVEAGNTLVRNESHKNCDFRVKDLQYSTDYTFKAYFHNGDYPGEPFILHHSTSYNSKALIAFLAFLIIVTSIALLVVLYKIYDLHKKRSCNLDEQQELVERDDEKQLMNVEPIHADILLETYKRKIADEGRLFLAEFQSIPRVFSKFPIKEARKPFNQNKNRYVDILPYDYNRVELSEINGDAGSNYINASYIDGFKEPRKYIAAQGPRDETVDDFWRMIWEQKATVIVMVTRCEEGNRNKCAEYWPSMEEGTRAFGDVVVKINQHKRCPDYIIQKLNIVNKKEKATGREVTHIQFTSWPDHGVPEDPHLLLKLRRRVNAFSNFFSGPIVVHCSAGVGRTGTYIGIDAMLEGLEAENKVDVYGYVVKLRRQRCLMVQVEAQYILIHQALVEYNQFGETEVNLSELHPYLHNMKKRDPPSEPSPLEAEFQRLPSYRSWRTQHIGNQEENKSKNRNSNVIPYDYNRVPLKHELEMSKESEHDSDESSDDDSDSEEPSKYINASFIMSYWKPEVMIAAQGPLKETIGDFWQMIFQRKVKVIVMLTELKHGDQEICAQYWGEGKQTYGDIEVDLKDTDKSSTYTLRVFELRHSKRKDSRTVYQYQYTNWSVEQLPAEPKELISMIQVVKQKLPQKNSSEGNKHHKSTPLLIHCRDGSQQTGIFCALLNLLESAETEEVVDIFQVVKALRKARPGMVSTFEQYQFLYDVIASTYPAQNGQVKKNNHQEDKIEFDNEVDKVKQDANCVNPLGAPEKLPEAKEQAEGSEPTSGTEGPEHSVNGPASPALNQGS

Oc1ccc(-c2ccc(-c3nnn[nH]3)cc2Cl)cc1C12CC3CC(CC(C3)C1)C2 [5-[3'-(1-adamantyl)-2-chloro-4'-hydroxy-4-biphenyl]-1H-tetrazole]
IC50: 1200 nM
